Laboratory results as given in patent US7947854B2, “Bis-cationic compounds and use thereof” (The University of Sydney, priority 2003, dated 2011).
Read-outs that look alike come from different tables or passages of the source.

Key:
[1] = tested on: C. albicans (ATCC10231) phospholipases; assay: Inhibition of C. albicans phospholipases; assay type: biochemical
[2] = tested on: T. mentagrophytes; assay: Susceptibility of dermatophytes, broth microdilution NCCLS M38-P; assay type: cell-based; details: 100% growth inhibition, 28° C.; for MIC: Trichophyton mentagrophytes
Experimental: Isolates were tested using the method described in the National Committee for Clinical Laboratory Standards (NCCLS) document M38-P for filamentous fungi, with dermatophyte specific modifications described by Fernández-Torres et al, Current topics in Medical Mycology, 14-19 Feb. 1999.
Five dermatophyte isolates were, namely; T. rubrum, T. mentagrophytes, T. tonsurans, M. canis and M. gypseum, all of which produce lipases and some, phospholipase. These isolates were tested by the broth microdilution method according to NCCLS document M38-P, for activity against selected antifungal agents. In addition, ten randomly selected isolates of T. tonsurans were also tested. All isolates were maintained on SDA at 28° C. Candida parapsilosis (ATCC 20019) was used as the reference control is organism.
The microdilution plates used were a single lot of RPMI 1640 basal medium (JRH bioScience Inc. Lenexa, Kans., USA) with L-glutamine and without sodium bicarbonate, buffered to pH 7.0, at 25° C., with 0.165 M (MOPS) morpholinepropanesulfonic acid (Sigma).
Powdered drugs were dissolved in 100% dimethyl sulfoxide (DMSO), at concentrations 100 times higher than the final test concentration. All compounds were prepared in 100% (DMSO). For ITRA and TRB, two-fold drug dilutions were prepared in 100% DMSO at 100 times the final concentration, followed by further dilution 1:50 in RPMI medium, to yield 2× the final strength required for the test.
Fungal cultures were subcultured onto Potato Dextrose Agar and grown at 28° C. for 7-10 days. Fungal suspensions were covered with 5 ml of distilled water, and then colonies were scraped off with cotton tipped swabs. The resulting mixture of conidia and hyphae elements was withdrawn, transferred to a sterile tube and then vortexed with glass beads. After the particles settled, the upper homogeneous suspension was collected and its density adjusted by a densitometer to a 0.5 McFarland standard at the wavelength of 530 nm (80-85% transmittance). These stock suspensions were then diluted 1:50 with RPMI medium to obtain final working inoculum concentration ranging from 0.3×10^4 to 9×10^4 CFU/ml. Inoculum quantification was performed by plating 100 μl of the 1:1000 dilution of the adjusted inoculum on SDA plates, incubated at 28° C., and after 7 days of incubation, the colonies were counted.
Testing was based on NCCLS M38-P document for testing filamentous moulds. Testing was carried out in sterile 96-well flat bottomed microtitre plate. Columns 1 and 3 to 12 were filled with 100 μl of RPMI medium, leaving column 2 unfilled. Columns 1, 2 and 3 were filled with 100 μl of 2× drug concentration. Serial dilutions were then made by transferring 100 μl from column 3 to each column up to column 11, and 100 μl from column 11 was discarded. Column 12 served as drug free growth control. Finally, 100 μl of inoculum suspension was added to all wells except column 1, which acted as sterility control (Columns 1 and 12 served as sterility and growth control respectively). Plates were incubated at 28° C. for 7 days, and read at 3 days and 7 days of incubation. All testing was performed in duplicate, on three separate occasions.
Growth in microtitre trays were read by visual inspection by using an illuminated-reversed mirror. Growth in each well was compared with the “growth control” drug free well. The MIC end point for all the drugs was chosen to be the first well with 100% growth inhibition (i.e. the lowest drug concentration inhibiting growth).

In the case of `CCCC[N+](CCCC)(CCCC)CCCCCCCCCCCC[N+](CCCC)(CCCC)CCCC` [Compound 3, 1,12-bis(tributylammonium)do-decane dibromide], the “inhibition of C. albicans (ATCC10231) phospholipases, in words” value [1] was “inhibits”, the “MIC Range, T. mentagrophyte” value [2] was 3.8 µg/mL and the MIC ([2]; read-out: MIC GM, T. mentagrophyte) was 3.8 µg/mL. It also gave an MIC ([2]; read-out: MIC Mean, T. mentagrophyte) of 3.8 µg/mL.
